# Data as given in ChEMBL document CHEMBL1201862, “PubChem BioAssay data set” (2004).
# Calls of active or inactive are those of the source.
# Experiments:
# [1] = target: Tyrosine-protein kinase receptor TYRO3 (Homo sapiens, UniProt Q06418); assay type: functional;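 further: TYRO3 value obtained as one member of a kinome-wide profiling panel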
# [2] = target: Dual specificity tyrosine-phosphorylation-regulated kinase 1B (Homo sapiens, UniProt Q9Y463); test: Navigating the Kinome. Panel member name: DYRK1B; assay type: functional
# [3] = Vero cell cytotoxicity, dose response, cytotoxicity control for M. tuberculosis growth inhibitor project, Vero cells, purified and synthesized compounds, set 5 (AID 504909); assay type: functional; conditions: Mycobacterium tuberculosis
# [4] = A Cell Based Secondary Assay to Explore Cytotoxicity in THP-1 Cells of Compounds that Modulate Mycobacterium tuberculosis in Media Containing Glycerol versus Media without Glycerol (2).; assay type: functional
# [5] = Vero cell cytotoxicity, cytotoxicity control for M. tuberculosis inhibitor project, purified and synthesized samples, set 3 (AID 504684); assay type: functional
# [6] = THP-1 cell cytotoxicity, cytotoxicity control, set 4 (AID 504911); assay type: functional; conditions: Mycobacterium tuberculosis
# [7] = A Cell Based Secondary Assay to Explore Cytotoxicity in HepG2 Cells of Compounds that Modulate Mycobacterium tuberculosis in Media Containing Glycerol versus Media without Glycerol (2).; assay type: functional
# [8] = THP-1 cell cytotoxicity, dose response, cytotoxicity control, set 3 (AID 504852); assay type: functional; conditions: Mycobacterium tuberculosis
# [9] = Vero cell cytotoxicity, dose response, cytotoxicity control for M. tuberculosis growth inhibitor project, Vero cells, purified and synthesized compounds, set 4 (AID 504854); assay type: functional; conditions: Mycobacterium tuberculosis
# [10] = target: Protein disulfide-isomerase (Homo sapiens, UniProt P07237); test: inhibition of PDI-driven insulin aggregation – biochemical, turbidity, absorbance, cherry-picked samples, dose response (AID 602350); assay type: functional
# [11] = target: Cyclin-dependent kinase 8 (Homo sapiens, UniProt P49336); test: Navigating the Kinome. Panel member name: CDK8; assay type: functional
# [12] = target: Dual specificity protein kinase CLK4 (Homo sapiens, UniProt Q9HAZ1); assay type: functional
# Protein Rev = Protein Rev (Human immunodeficiency virus type 1 group M subtype B (isolate HXB2)(HIV-1), UniProt P04618); test: blockers of HIV Rev/RRE RNA complex – biochemical, fluorescence polarization, HIV-1, dose response (AID 434976); design: species or system Human immunodeficiency virus 1
# [13] = target: Female germline-specific tumor suppressor gld-1 (Caenorhabditis elegans, UniProt Q17339); test: blockers of GLD-1/TGE RNA complex formation – biochemical, fluorescence polarization, C. elegans, dose response (AID 2802);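 further: fluorescence polarization of labeled TGE RNA bound by purified gld-1 protein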
# Caspase-3 = target: T1, Caspase-3 (Homo sapiens, UniProt P42574); test: activation of caspase-3 zymogen – biochemical, absorbance, dose response (AID 489014)
# T1 sequence (P42574 whole entry): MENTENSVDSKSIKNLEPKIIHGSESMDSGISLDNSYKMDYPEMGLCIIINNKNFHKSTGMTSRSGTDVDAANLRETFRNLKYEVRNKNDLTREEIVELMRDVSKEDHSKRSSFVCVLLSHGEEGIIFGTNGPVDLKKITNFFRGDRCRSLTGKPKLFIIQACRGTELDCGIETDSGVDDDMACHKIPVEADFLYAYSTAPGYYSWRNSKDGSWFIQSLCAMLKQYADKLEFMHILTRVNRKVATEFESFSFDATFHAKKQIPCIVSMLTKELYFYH
# Caspase-7 = Caspase-7 (Homo sapiens, UniProt P55210); test: activation of caspase-7 zymogen – biochemical, absorbance, counter-screen for procaspase-3 activator project, dose response (AID 489013)
# [14] = target: T2, Endoribonuclease toxin MazF (Escherichia coli K-12, UniProt P0AE70); test: activation of MazEF endoribonuclease cleavage – biochemical, fluorescence, single-stranded RNA substrate, uHTS hits, dose response (AID 588481); assay type: functional
# [15] = target: T2, Endoribonuclease toxin MazF; test: substrate-only fluorescence increase artefacts – biochemical, single-stranded RNase substrate, counter-screen for MazEF activator project, dose response (AID 588502); assay type: functional
# Aurora kinase A = Aurora kinase A (Homo sapiens, UniProt O14965); assay type: functional;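 further: value from the Navigating the Kinome kinase panel profiling, panel entry STK6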
# [16] = target: Vascular endothelial growth factor receptor 2 (Homo sapiens, UniProt P35968); assay type: functional
# Aurora kinase B = Aurora kinase B (Homo sapiens, UniProt Q96GD4); assay type: functional
# Aurora kinase B, sequence (Q96GD4 whole entry): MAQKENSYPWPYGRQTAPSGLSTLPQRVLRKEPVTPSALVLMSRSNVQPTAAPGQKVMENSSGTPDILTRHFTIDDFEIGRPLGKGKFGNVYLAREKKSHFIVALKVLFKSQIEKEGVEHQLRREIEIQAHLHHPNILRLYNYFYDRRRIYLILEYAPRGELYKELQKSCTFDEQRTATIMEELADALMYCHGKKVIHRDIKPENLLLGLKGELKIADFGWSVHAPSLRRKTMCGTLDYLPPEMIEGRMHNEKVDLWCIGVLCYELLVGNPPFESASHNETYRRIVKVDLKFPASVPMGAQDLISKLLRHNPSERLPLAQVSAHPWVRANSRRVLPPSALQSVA
# T2 sequence (P0AE70 whole entry): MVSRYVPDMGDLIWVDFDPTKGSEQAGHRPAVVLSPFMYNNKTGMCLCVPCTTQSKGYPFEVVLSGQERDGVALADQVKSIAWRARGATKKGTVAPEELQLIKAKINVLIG
# Protein disulfide-isomerase, sequence (P07237 whole entry): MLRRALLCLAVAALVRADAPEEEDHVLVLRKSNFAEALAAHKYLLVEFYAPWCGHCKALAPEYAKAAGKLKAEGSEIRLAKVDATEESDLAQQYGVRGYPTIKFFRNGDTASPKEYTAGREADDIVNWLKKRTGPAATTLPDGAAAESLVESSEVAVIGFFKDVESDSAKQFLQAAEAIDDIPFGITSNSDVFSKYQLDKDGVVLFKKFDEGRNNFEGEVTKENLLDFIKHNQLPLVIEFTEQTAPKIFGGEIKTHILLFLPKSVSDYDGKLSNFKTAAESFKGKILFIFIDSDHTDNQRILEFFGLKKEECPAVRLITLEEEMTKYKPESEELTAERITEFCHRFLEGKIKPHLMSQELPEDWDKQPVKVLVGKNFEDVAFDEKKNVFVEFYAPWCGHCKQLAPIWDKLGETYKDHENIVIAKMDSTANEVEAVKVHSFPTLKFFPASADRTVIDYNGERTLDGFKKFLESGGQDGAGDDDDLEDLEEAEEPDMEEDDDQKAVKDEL
# Vascular endothelial growth factor receptor 2, sequence (P35968 whole entry): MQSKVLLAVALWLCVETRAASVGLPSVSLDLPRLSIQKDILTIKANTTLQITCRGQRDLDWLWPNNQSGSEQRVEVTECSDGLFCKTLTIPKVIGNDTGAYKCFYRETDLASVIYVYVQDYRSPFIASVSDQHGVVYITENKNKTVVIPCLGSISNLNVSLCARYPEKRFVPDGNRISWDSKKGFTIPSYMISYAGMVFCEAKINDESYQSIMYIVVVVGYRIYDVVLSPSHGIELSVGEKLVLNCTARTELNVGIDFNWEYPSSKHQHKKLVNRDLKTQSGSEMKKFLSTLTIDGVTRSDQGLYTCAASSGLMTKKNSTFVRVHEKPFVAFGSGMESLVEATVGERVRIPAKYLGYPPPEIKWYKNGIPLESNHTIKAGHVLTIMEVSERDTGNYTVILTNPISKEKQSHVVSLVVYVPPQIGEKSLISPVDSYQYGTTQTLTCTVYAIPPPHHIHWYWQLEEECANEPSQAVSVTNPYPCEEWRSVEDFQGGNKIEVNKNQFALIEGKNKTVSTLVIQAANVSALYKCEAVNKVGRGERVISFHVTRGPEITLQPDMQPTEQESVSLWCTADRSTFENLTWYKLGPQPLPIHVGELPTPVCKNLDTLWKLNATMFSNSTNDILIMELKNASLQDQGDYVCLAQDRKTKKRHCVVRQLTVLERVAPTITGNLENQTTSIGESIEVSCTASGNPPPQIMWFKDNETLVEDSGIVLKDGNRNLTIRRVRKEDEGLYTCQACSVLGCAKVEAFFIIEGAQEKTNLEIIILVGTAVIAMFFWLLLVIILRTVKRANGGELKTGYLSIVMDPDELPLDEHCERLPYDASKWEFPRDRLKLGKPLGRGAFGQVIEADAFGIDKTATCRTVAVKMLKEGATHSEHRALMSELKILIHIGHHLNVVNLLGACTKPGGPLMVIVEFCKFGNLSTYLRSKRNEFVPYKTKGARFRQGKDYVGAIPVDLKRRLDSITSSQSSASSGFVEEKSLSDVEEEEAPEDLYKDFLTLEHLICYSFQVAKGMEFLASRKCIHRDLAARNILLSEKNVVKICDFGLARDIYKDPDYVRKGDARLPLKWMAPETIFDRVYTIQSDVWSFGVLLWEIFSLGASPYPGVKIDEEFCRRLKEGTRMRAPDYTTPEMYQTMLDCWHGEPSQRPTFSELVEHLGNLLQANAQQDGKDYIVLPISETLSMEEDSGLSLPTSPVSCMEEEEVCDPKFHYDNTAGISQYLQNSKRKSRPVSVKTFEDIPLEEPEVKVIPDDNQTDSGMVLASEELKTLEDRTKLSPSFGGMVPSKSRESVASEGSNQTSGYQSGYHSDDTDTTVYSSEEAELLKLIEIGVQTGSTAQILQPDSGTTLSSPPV
# Dual specificity tyrosine-phosphorylation-regulated kinase 1B, sequence (Q9Y463 whole entry): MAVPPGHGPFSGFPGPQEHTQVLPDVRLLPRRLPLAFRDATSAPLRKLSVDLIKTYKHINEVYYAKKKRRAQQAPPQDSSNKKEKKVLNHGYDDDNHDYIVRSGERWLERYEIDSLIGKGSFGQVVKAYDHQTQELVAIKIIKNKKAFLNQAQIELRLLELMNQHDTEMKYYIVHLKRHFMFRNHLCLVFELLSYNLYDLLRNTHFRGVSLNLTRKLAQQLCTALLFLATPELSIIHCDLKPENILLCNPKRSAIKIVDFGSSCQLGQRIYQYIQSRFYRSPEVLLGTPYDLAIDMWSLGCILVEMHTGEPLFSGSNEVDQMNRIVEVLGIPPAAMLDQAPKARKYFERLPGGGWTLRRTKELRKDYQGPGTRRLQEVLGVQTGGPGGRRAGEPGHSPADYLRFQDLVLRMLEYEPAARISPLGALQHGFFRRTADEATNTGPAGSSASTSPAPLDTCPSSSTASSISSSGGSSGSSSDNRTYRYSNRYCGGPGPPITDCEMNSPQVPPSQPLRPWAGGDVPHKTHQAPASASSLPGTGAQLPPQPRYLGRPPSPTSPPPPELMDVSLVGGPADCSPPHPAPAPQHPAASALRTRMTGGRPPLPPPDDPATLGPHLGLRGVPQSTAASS
# Aurora kinase A, sequence (O14965 whole entry): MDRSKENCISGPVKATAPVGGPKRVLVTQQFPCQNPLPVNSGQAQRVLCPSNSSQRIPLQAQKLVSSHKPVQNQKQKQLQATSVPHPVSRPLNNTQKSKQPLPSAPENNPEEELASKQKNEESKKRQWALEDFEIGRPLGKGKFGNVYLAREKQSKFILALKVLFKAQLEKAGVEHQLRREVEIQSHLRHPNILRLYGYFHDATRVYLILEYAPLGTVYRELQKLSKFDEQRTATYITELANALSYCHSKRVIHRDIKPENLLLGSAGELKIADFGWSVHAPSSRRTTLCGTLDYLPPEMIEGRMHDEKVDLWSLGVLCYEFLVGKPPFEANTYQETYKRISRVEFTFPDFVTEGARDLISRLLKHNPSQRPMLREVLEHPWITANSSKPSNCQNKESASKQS
# Dual specificity protein kinase CLK4, sequence (Q9HAZ1 whole entry): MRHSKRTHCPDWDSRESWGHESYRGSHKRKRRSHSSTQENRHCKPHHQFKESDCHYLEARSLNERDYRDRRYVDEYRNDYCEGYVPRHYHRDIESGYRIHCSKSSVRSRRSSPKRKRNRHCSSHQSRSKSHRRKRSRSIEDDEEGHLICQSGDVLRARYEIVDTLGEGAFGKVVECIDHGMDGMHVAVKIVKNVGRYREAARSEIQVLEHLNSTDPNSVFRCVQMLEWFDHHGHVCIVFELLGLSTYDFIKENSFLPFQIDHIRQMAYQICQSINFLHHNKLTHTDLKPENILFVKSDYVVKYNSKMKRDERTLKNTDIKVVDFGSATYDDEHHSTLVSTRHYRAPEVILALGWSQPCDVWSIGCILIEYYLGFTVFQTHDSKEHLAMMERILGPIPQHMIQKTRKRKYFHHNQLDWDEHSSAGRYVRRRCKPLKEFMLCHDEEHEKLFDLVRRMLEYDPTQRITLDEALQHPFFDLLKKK
# Cyclin-dependent kinase 8, sequence (P49336 whole entry): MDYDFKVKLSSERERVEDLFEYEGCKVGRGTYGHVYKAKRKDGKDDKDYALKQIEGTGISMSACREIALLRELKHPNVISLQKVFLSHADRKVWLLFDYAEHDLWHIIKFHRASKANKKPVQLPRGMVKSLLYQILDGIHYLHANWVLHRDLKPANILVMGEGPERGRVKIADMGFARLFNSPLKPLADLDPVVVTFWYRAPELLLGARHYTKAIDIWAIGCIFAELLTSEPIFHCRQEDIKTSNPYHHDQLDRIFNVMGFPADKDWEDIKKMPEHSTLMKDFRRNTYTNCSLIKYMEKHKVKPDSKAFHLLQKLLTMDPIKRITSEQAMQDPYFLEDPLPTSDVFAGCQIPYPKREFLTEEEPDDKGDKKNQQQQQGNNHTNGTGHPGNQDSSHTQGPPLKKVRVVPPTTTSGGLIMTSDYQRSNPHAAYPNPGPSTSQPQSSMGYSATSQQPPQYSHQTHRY
# Protein Rev, sequence (P04618 whole entry): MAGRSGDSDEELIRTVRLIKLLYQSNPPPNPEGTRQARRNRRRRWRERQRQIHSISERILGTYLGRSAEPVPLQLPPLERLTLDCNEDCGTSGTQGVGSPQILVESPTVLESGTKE
# Female germline-specific tumor suppressor gld-1, sequence (Q17339 whole entry): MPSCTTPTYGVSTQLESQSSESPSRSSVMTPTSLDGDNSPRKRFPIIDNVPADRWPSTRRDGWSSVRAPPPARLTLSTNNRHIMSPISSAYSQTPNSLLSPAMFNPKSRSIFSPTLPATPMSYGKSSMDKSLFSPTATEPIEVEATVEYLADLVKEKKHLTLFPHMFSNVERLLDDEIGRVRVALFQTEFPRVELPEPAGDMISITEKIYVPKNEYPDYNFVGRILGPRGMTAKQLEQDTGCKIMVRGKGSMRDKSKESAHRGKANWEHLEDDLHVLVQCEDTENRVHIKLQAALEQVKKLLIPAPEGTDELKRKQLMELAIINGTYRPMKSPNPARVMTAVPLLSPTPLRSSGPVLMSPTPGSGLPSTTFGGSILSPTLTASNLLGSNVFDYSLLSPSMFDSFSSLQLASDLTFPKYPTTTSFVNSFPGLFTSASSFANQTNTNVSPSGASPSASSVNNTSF
compound,measurement,setting,value
O=C1NC(=S)N(c2ccccc2)C1=O,Ki,[1],79.4 µM (active)
same,Ki,[2],79.4 µM (active)
COC(=O)C(Nc1nc(SCC(=O)NC2CCCCC2)nc2ccccc12)c1ccccc1 (stereo unspecified),CC50,[3],> 100 µM (active)
same,CC50,[4],70.9 µM (active)
same,CC50,[5],73.2 µM (active)
same,CC50,[6],129 µM (active)
same,CC50,[7],> 50 µM (active)
same,CC50,[8],41.1 µM (active)
same,CC50,[9],66 µM (active)
C[C@@H]1CN([C@@H](C)CO)C(=O)c2cc(NC(=O)Cc3cn(C)c4ccccc34)ccc2O[C@H]1CN(C)S(=O)(=O)c1ccc(F)cc1,AC50,[10],2.08 µM (active)
O=C(Nc1cccc2[nH]ncc12)NC1CCc2c1cccc2N1CCCC1 (stereo unspecified),Ki,[11],2.51 µM (active)
same,Ki,[12],794 nM (active)
CC(=O)Oc1cccc2c1C(=O)c1c(OC(C)=O)cc(C(=O)O)cc1C2=O [DIACEREIN],IC50,Protein Rev,> 75.4 µM (not active)
same,IC50,[13],7.31 µM (active)
same,EC50,Caspase-3,7.89 µM (active)
same,EC50,Caspase-7,14.8 µM (inactive)
same,EC50,[14],> 99 µM (inactive)
same,EC50,[15],> 99 µM (inactive)
COc1ccc(-c2cc(=O)c3c(O)c(OC)c(OC)cc3o2)cc1O [EUPATORIN],Ki,Aurora kinase A,1 µM (active)
same,Ki,[16],794 nM (active)
same,Ki,Aurora kinase B,39.8 nM (active)
